We go through 1 molecule from patent US20170224613A1, “HYDROGEL COMPOSITIONS, METHODS FOR PREPARING THE SAME AND USES THEREOF” (CHONGQING MJ MEDICAL DEVICES CO., LTD., priority 2014, published 2017).

The data set relates to healthy volunteers. Put plainly: Testing in healthy volunteers: warming sensation, cooling sensation, skin irritation on forearm. It counts as in vivo, human. The following applies: at 11 wt % based on the total weight of the hydrogel composition.

SMILES strings stand for the structures.

Method: In a pilot study to evaluate the hydrogel composition formulations, the different hydrogel prototypes (with a gauze on which the respective hydrogel composition was disposed) of Examples 2 (called gel B in Table 3) and 6 (called gel C in Table 3) and Comparative Example 1 (called gel A in Table 3) were tested on 8 healthy volunteers (M:F=5:3, ages 27-64), respectively. […] Three clinical parameters were considered including the cooling sensation, the warming sensation and irritation/erythema on the applied skin area. In this pilot study, each participant has applied the topical hydrogels (120 mm×100 mm×5 mm; 70 g) on to their forearm (one gel per forearm at a time) and scored their subjective warming and cooling sensations at 5, 10, 20, and 30 min after hydrogel application according to Table 2. The skin irritation reaction was also examined and scored by a researcher according to Table 2.

For the molecule `COC(=O)c1ccccc1O` [Methyl salicylate, methyl salicylate], the “irritation by methyl salicylate in hydrogel” value was “showed irritation”.
